The text below walks through data of patent US20080108694A1, “Novel Macrocycles and Uses Thereof” (priority 2003, published 2008).

For series [1] the following is noted: rcm bond.
For series [2], the system named is small cell lung cancer cell line with defective Rb function. The series can be described thus: Inhibition of small cell lung cancer cell line with defective Rb function. Format: cell-based, human. The procedure:
(§1) Growth assays were performed by seeding 10000 cells (MCF7, BT474 or N417) per well in 6-welldishes and incubating for 24 h before drug treatment. Drugs or vehicle were administered as outlined for each experiment, and cells were incubated for the time periods depicted and then the number quantified by a Coulter counter.

Series [3] relates to MCF7. The series can be described thus: Alamar blue proliferation assay, growth inhibition of MCF7 breast cancer cells. Format: cell-based, human. The note with it: for IC50: Homo sapiens. An excerpt: Biological Evaluation of Cycloproparadicicol Analogues. As discussed earlier, it appears that the inhibition of Hsp90 induces the proteasomal degradation of various oncogenic proteins, thereby leading to inhibition of tumor cell growth. We hoped to evaluate our synthetic analogues for their growth inhibition activity against MCF breast cancer cells. […] Further modifications of 27α, however, decreased its potency.
Cell Culture. The human cancer line MCF7 was obtained from American Type Culture Collection (Manassas, Va., USA) and maintained in 1:1 mixture of DME:F12 supplemented with 10% heat-inactivated fetal bovine serum, 2 mM glutamine, 50 units/ml of penicillin and streptomycin, and incubated in a humidified 5% CO2/air atmosphere at 37° C. For the Alamar blue proliferation assay, 2×10^3 cells were plated in 96-well plates. Twenty four hours later, cells were treated with the compound for 72 or 120 hours. On day 3 or 5, Alamar Blue viability assay (AccuMe Westlake, Ohio) was performed as described elsewhere (White, M. J.; DiCaprio, M. J Greenberg, D. A. J. Neurosci. Methods 1996, 70, 195-200; incorporated herein by reference). IC50s were calculated as the doses of the compound required to inhibit cell growth by 50% of control values.

In series [4] the test system is HER2. The series is described as follows: Her2 degradation in drug-treated MCF-7 cells by immunoblotting. Format: cell-based, human. To be noted: for concentration at which Her2 is degraded: P85 control. The procedure: To confirm that the cytotoxicity was indeed due to the inhibition of Hsp90, we set out to investigate the degradation of Her2, one of the most sensitive client proteins of this chaperone. The expression levels of Her2 of drug-treated MCF-7 cells were analyzed using immunoblotting (FIG. 31). P85, used as a control, is not a client protein of Hsp90. As expected, the growth inhibition activities of the synthetic active analogues are reflected in their capacity to degrade Her2. […] Nonchlorinated difluoro compound 38 degraded Her2 at 1 μM, and its chlorinated counterpart 31, at 10 μM.
Immunoblotting. For immunoblotting, cells in culture were washed and harvested in PBS, and then lysed in NP-40 buffer (50 mMTris, pH 7.5, 1% Nonidet P-40, 150 mM NaCl, 2.5 mM Na3VO4, 10 mM phenylmethylsulfonyl fluoride, and 10 μM each leupeptin, aprotinin, and soybean trypsin inhibitor). Cell lysates were cleared by centrifugation at 14,000×g for 10 minutes, and supernatants were collected as the experimental samples. Protein concentrations were determined using BCA reagent (Pierce Chemical Co., Rockford, Ill.). Lysates were added to sample buffer [0.3125 M Tris-HCl (pH 6.8), 10% SDS, 50% glycerol, and 77.5 mg/ml DTT], and equal amounts of protein were resolved by 7% SDS-PAGE and transferred to nitrocellulose membranes. Blots were blocked in 5% nonfat milk in Tris-buffered saline [0.1% Tween 20, 10 mM Tris (pH 7.4), and 150 mM NaCl] and subsequently probed with antibody (HER2 rabbit polyclonal IgG, Santa Cruz Biotechnology, Santa Cruz, Calif.; and PI3 kinase P85, Upstate Cell Signaling Solutions, Lake Placid, N.Y.). After incubation with horseradish peroxidase-conjugated secondary antibodies, proteins were visualized by chemiluminescence using the ECL detection reagents (Amersham Corp., Piscataway, N.J.). To prepare lysate from xenograft tumors, tumor tissue was homogenized in 2% SDS lysis buffer for 30 s then processed as above.
(Immunoblotting shows a protein as a band on a membrane.)

For series [5], the system named is Hsp90. To be noted: cited from earlier work.
Series [6] has as its system HER2. The series can be described thus: Reduction of HER2 in MCF7 and BT474 cells (protein assay, gels). Format: cell-based, human. To be noted: tested at 0.5 μM through 5 μM. How it is done: As depicted in FIGS. 17 and 18, four analogues have been tested for their ability to reduce HER2 in MCF7 and BT474 cells. […] Furthermore, while the vinyl epoxide, a reactive moiety, may be responsible for undesired cytotoxicity, the cyclopropane is far more stabile to non-productive cellular nucleophiles.
The human cancer cell lines MCF7, BT474 and N417 were obtained from the American Type Culture Collection (Manassas, Va., USA) and maintained in a 1:1 mixture of DME:F12 supplemented with 2 mM glutamine, 50 U/mL penicillin, 50 U/mL streptomycin and 5% heat inactivated fetal bovie serum (Gemini Bioproducts) and incubated at 37° C. in 5% CO2.
Cells were grown to 60-70% confluence and exposed to drugs or DMSO vehicle for the indicated time periods. Lysates were prepared using 50 mM Tris pH 7.4, 2% SDS and 10% glycerol lysis buffer. Protein concentration was determined using the BCA kit (Pierce Chemical Co.) according to the manufacturer's instructions. Clarified protein lysates (20-50 μg) were electrophoretically resolved on denaturing SDS-PAGE, transferred to nitrocellulose and probed with the following primary antibodies: anti-Her2 (C-18).

Series [7] deals with breast cancer cell with wild type Rb. The series is described as follows: Inhibition of breast cancer cell with wild type Rb. The class given is cell-based, human. How it is done:
as §1

Series [8] has as its system P. falciparum. To be noted: cited from earlier work.
Series [9] deals with KB cells. To be noted: cited from earlier work.
The conditions of series [10]: cited from earlier work.
Series [11] concerns MCF7 cells. The series is described as follows: Growth of MCF7 cells (HER2 overexpressed, Rb positive) treated with radicicol and analogues. The class given is cell-based, human.
Where [12] appears, read: MCF7, MCF breast cancer cells, 72 h treatment, read-out: IC50 value.
[13] abbreviates: MCF7 cells, 72 h treatment, read-out: IC50 (pM) Values of Cycloproparadicicol Analogues and Aigialomycin D.
Setting [14] is: MCF breast cancer cells, 72 h treatment.

Values after ≈ are worked out from the molar mass of the structure shown. Read-outs that look alike come from different tables or passages of the source. Bounds are passed on as bounds.

In [1] (from C=CCCCCOC(=O)[C]12[Co]3[Co]1[C]32CC(/C=C/C=C/C)O[Si](C)(C)C(C)(C)C.[C-]#[O+].[C-]#[O+].[C-]#[O+].[C-]#[O+].[C-]#[O+].[C-]#[O+]), `CC(C)(C)[Si](C)(C)OC1/C=C/C=CCCCCOC(=O)[C]23[Co]4[Co]2[C]43C1.[C-]#[O+].[C-]#[O+].[C-]#[O+].[C-]#[O+].[C-]#[O+].[C-]#[O+]` (centres unmarked) displayed a ring closure, yield of all isomers of 71%.

The compound `C[C@@H]1C[C@H]2C[C@@H]2C=C/C=C/C(O[Si](C)(C)C(C)(C)C)CC#CC(=O)N1` (some centres unmarked) gave a ring closure, yield of all isomers in [1] (from C=C[C@H]1C[C@@H]1C[C@@H](C)NC(=O)C#CCC(/C=C/C=C/C)O[Si](C)(C)C(C)(C)C.[C-]#[O+].[C-]#[O+].[C-]#[O+].[C-]#[O+].[C-]#[O+].[C-]#[O+].[Co].[Co], 2 steps) of 60%.

With `C[C@@H]1C[C@H]2C[C@@H]2C=C/C=C/C(O[Si](C)(C)C(C)(C)C)CC#CC(=O)O1` (some centres unmarked), in [1] (from C=C[C@H]1C[C@@H]1C[C@@H](C)OC(=O)[C]12[Co]3[Co]1[C]32CC(/C=C/C=C/C)O[Si](C)(C)C(C)(C)C.[C-]#[O+].[C-]#[O+].[C-]#[O+].[C-]#[O+].[C-]#[O+].[C-]#[O+], 2 steps), the ring closure, yield of all isomers is 51%.

Compound `C[C@@H]1C[C@H]2C[C@@H]2C=C/C=C/C(O[Si](C)(C)C(C)(C)C)C[C]23[Co]4[Co]2[C]43C(=O)O1.[C-]#[O+].[C-]#[O+].[C-]#[O+].[C-]#[O+].[C-]#[O+].[C-]#[O+]` (some centres unmarked) displayed a ring closure, yield of all isomers in [1] (from C=C[C@H]1C[C@@H]1C[C@@H](C)OC(=O)[C]12[Co]3[Co]1[C]32CC(/C=C/C=C/C)O[Si](C)(C)C(C)(C)C.[C-]#[O+].[C-]#[O+].[C-]#[O+].[C-]#[O+].[C-]#[O+].[C-]#[O+]) of 57%.

With `C[C@H]1CC=C[C@H]2OC(C)(C)O[C@H]2CCC(O[Si](C)(C)C(C)(C)C)C[C]23[Co]4[Co]2[C]43C(=O)O1.[C-]#[O+].[C-]#[O+].[C-]#[O+].[C-]#[O+].[C-]#[O+].[C-]#[O+]` (some centres unmarked), the ring closure, yield of all isomers in [1] (from C=CC[C@H](C)OC(=O)[C]12[Co]3[Co]1[C]32CC(CC[C@@H]1OC(C)(C)O[C@@H]1C=C)O[Si](C)(C)C(C)(C)C.[C-]#[O+].[C-]#[O+].[C-]#[O+].[C-]#[O+].[C-]#[O+].[C-]#[O+]) was 80%.

As for “17-alkylaminogeldanamycin [17-AGG, reference compound]”, the “potency in cells with wild type Rb versus cells with defective Rb function” value in [2] was “much more potent against cells with wild type Rb than in cells with defective Rb function”.

With `C[C@@H]1C[C@H]2C[C@@H]2/C=C\C=C\[C@H](O)Cc2cc(O)cc(O)c2C(=O)O1` [27α], the half-maximal inhibitory concentration (IC50) in series [3] (setting [12]) and in series [3] (setting [13]) was 150000 pM throughout. Also, in series [4], the “concentration at which Her2 is degraded” value was 0.3 µM.

Consider `C[C@@H]1C[C@H]2C[C@@H]2/C=C\C=C\[C@@H](O)Cc2cc(O)cc(O)c2C(=O)O1` [27β], for which, in [3] (setting [13]), the IC50 (commonly the concentration needed to halve the response being measured) was more than 500000 pM. Besides, in [3] (setting [14]), the “growth inhibition activity” value was “inactive”.

Consider `C[C@@H]1C[C@H]2C[C@@H]2/C=C\C=C\[C@H](O)Cc2c(Cl)c(O)cc(O)c2C(=O)O1` [28α], for which the half-maximal inhibitory concentration (IC50) in series [3] (setting [12]) and in series [3] (setting [13]) was 390000 pM each time.

Turning to `CO[C@H]1/C=C/C=C\[C@H]2C[C@@H]2C[C@@H](C)OC(=O)c2c(O)cc(O)cc2C1` [29α], in series [3] (setting [13]), the half-inhibitory concentration (IC50) is more than 1e+07 pM. Moreover, the “growth inhibition activity” value in series [3] (setting [14]) was “completely inactive”.

Regarding `C[C@@H]1C[C@H]2C[C@@H]2\C=C/C=C/C(=N/O)Cc2c(Cl)c(O)cc(O)c2C(=O)O1` [(E)-30], the half-maximal inhibitory concentration (IC50) in series [3] (setting [13]) was 282000 pM. For the same compound, the “capacity to degrade Her2” value in series [4] is given as “less effective”.

`C[C@@H]1C[C@H]2C[C@@H]2\C=C/C=C/C(=N\O)Cc2c(Cl)c(O)cc(O)c2C(=O)O1` [(Z)-30]: the IC50 in series [3] (setting [13]) was found to be 98000 pM. Also, the “potency relative to the corresponding (E)-isomer” value in series [3] (MCF breast cancer cells, 72 h) amounted to 3 times. In addition, the “concentration at which Her2 is degraded” value in series [4] stood at 0.3 µM.

As for `C[C@@H]1C[C@H]2C[C@@H]2/C=C\C=C\C(=O)Cc2c(Cl)c(O)cc(O)c2C(=O)O1` [compound 2, Cycloproparadicicol], in series [5], the “binds to Hsp90 at” value is given as “ca. 160 nM”. For the same compound, the “effectiveness in reducing HER2 relative to radicicol” value in series [6] is “at least as effective, if not better than radicicol”. Besides, the IC50 in [3] (setting [13]) was determined as 54000 pM. Also, in [3] (setting [14]), the “growth inhibition activity” value is “most potent of the new compounds”. The “concentration at which Her2 is degraded” value in series [4] was found to be 0.3 µM. Moreover, the “inhibition of breast cancer cell with wild type Rb” value in [7] is recorded as “potent inhibitors”. In addition, in series [2], the “inhibition of small cell lung cancer cell line with defective Rb function” value is “potent inhibitors” and the “potency relative to 17-AGG in small cell lung cancer cell line with defective Rb function” value was “much more potent than 17-AGG”.

As to `C[C@@H]1C[C@@H]2[C@@H](/C=C\C=C\C(=O)Cc3c(Cl)c(O)cc(O)c3C(=O)O1)C2(F)F` [compound 31, Difluorocycloproparadicicol], the 50% inhibitory concentration (IC50) in [3] (setting [13]) is 1e+07 pM. Besides, in series [4], the “concentration at which Her2 is degraded” value is 10 µM.

For the compound `C[C@@H]1C[C@@H]2[C@@H](/C=C\C=C\C(=O)Cc3cc(O)cc(O)c3C(=O)O1)C2(F)F` [compound 38, Difluorocyclopropamonocilin], the half-maximal inhibitory concentration (IC50) in [3] (setting [13]) is 3e+06 pM. Besides, the “concentration at which Her2 is degraded” value in [4] came out at 1 µM.

In the case of `C[C@H]1C/C=C/[C@@H](O)[C@@H](O)CC/C=C/c2cc(O)cc(O)c2C(=O)O1` [compound 46, Aigialomycin D], the IC50 in series [3] (MCF7, 72 h, read-out: IC50 (pM) Values of Cycloproparadicicol Analogues and Aigialomycin D) was more than 1e+07 pM. Also, the “growth inhibition activity” value in series [3] (setting [14]) was “significantly less active than the cycloproparadicicol derivatives”. The “concentration at which Her2 is degraded” value in series [4] was more than 10 µM. Moreover, the “IC50 against P. falciparum (antimalarial activity)” value in series [8] is 6.6 µg/mL (≈ 19.7 µM). Besides, the “IC50 against KB cells (antitumor activity)” value in series [9] was 3.0 µg/mL (≈ 8.97 µM).

As for `C[C@@H]1C[C@H]2O[C@@H]2/C=C\C=C\C(=O)Cc2c(Cl)c(O)cc(O)c2C(=O)O1` [radicicol, reference compound], the “inhibition of breast cancer cell with wild type Rb” value in series [7] is reported as “potent inhibitors”. In addition, the “activity in in vivo (animal) models” value in series [10] is given as “ineffective”. Also, the “efficacy in side by side experiment with radicicol” value in series [11] is recorded as “demonstrated efficacy”. For the same compound, the “inhibition of small cell lung cancer cell line with defective Rb function” value in series [2] is recorded as “potent inhibitors”.
